Results from patent publication US9238631B2, “Radiolabeled amino acids for diagnostic imaging” (PIRAMAL IMAGING SA, priority 2011, dated 2016).

System: NCI-H460 tumor
Assay: In vivo biodistribution in NCI-H460 tumor bearing mice
Parameters: Summary: organs / Summary: Carcass / Summary: faeces: unit not given here
Conditions: for Summary: urine: in %; for Summary: Recovery: in % (unit assumed)
Method in brief: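 Biodistribution of 18F-labeled compounds was assessed in female NMRI (nu/nu) mice bearing NCI-H460 tumors, established by inoculating 5×10^6 cells 8 to 10 days beforehand. Each mouse received 185 kBq of the fluorinated tracer; at least n=3 animals per time point were sacrificed, organs excised, and radioactivity quantified with a γ-counter.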

Summary: faeces (timepoint 1.0 h): 0.01
Summary: organs (timepoint 1.0 h): 12.93
Tail (% Dosis/g) (timepoint 1.0 h): 0.41 % Dosis/g
Thyroid (% Dosis/g) (timepoint 1.0 h): 0.29 % Dosis/g
Tumor (% Dosis/g) (timepoint 1.0 h): 6.47 % Dosis/g
Tumor/Tissue: Adrenals (timepoint 1.0 h): 23.74
Tumor/Tissue: Blood (timepoint 1.0 h): 33.90
Tumor/Tissue: Bone (timepoint 1.0 h): 41.80
Tumor/Tissue: Brain (timepoint 1.0 h): 142.1
Tumor/Tissue: Fat (timepoint 1.0 h): 302.3
Tumor/Tissue: Gallbladder (timepoint 1.0 h): 0.88
Tumor/Tissue: Heart (timepoint 1.0 h): 58.14
Tumor/Tissue: Intestine (timepoint 1.0 h): 7.45
Tumor/Tissue: Kidney (timepoint 1.0 h): 3.12
Tumor/Tissue: Liver (timepoint 1.0 h): 2.99
Tumor/Tissue: Lung (timepoint 1.0 h): 18.22
Tumor/Tissue: Muscle (timepoint 1.0 h): 103.4
Tumor/Tissue: Ovaries (timepoint 1.0 h): 8.99
Tumor/Tissue: Pancreas (timepoint 1.0 h): 1.82
Tumor/Tissue: Skin (timepoint 1.0 h): 10.56
Tumor/Tissue: Spleen (timepoint 1.0 h): 4.32
Tumor/Tissue: Stomach (timepoint 1.0 h): 6.88
Tumor/Tissue: Thyroid (timepoint 1.0 h): 22.49
Tumor/Tissue: Uterus (timepoint 1.0 h): 8.25
Uterus (% Dosis/g) (timepoint 1.0 h): 0.97 % Dosis/g
Summary: urine (timepoint 1.0 h): 82.05
Summary: Recovery (timepoint 1.0 h): 98.57
Adrenals (% Dosis/g) (timepoint 2.0 h): 0.27 % Dosis/g
Blood (% Dosis/g) (timepoint 2.0 h): 0.08 % Dosis/g
Bone (% Dosis/g) (timepoint 2.0 h): 0.14 % Dosis/g
Brain (% Dosis/g) (timepoint 2.0 h): 0.05 % Dosis/g
Fat (% Dosis/g) (timepoint 2.0 h): 0.02 % Dosis/g
Gallbladder (% Dosis/g) (timepoint 2.0 h): 8.93 % Dosis/g
Heart (% Dosis/g) (timepoint 2.0 h): 0.06 % Dosis/g
Intestine (% Dosis/g) (timepoint 2.0 h): 1.12 % Dosis/g
Liver (% Dosis/g) (timepoint 2.0 h): 0.87 % Dosis/g
Muscle (% Dosis/g) (timepoint 2.0 h): 0.05 % Dosis/g
Ovaries (% Dosis/g) (timepoint 2.0 h): 0.54 % Dosis/g
Pancreas (% Dosis/g) (timepoint 2.0 h): 1.48 % Dosis/g
Skin (% Dosis/g) (timepoint 2.0 h): 0.43 % Dosis/g
Spleen (% Dosis/g) (timepoint 2.0 h): 1.29 % Dosis/g
Stomach (% Dosis/g) (timepoint 2.0 h): 0.46 % Dosis/g
Summary: Carcass (timepoint 2.0 h): 5.26
Summary: faeces (timepoint 2.0 h): 1.74
Summary: organs (timepoint 2.0 h): 8.77
Tail (% Dosis/g) (timepoint 2.0 h): 1.44 % Dosis/g
Thyroid (% Dosis/g) (timepoint 2.0 h): 0.26 % Dosis/g
Tumor (% Dosis/g) (timepoint 2.0 h): 7.21 % Dosis/g
Tumor/Tissue: Adrenals (timepoint 2.0 h): 27.83
Tumor/Tissue: Blood (timepoint 2.0 h): 86.51
Tumor/Tissue: Bone (timepoint 2.0 h): 57.86
Tumor/Tissue: Brain (timepoint 2.0 h): 161.0
Tumor/Tissue: Fat (timepoint 2.0 h): 396.0
Tumor/Tissue: Gallbladder (timepoint 2.0 h): 0.81
Tumor/Tissue: Heart (timepoint 2.0 h): 126.5
Tumor/Tissue: Intestine (timepoint 2.0 h): 6.58
Tumor/Tissue: Kidney (timepoint 2.0 h): 11.24
Tumor/Tissue: Liver (timepoint 2.0 h): 8.46
Tumor/Tissue: Lung (timepoint 2.0 h): 29.67
Tumor/Tissue: Muscle (timepoint 2.0 h): 169.9
Tumor/Tissue: Ovaries (timepoint 2.0 h): 13.81
Tumor/Tissue: Pancreas (timepoint 2.0 h): 4.90
Tumor/Tissue: Skin (timepoint 2.0 h): 39.91
Tumor/Tissue: Spleen (timepoint 2.0 h): 5.82
Tumor/Tissue: Stomach (timepoint 2.0 h): 16.25
Tumor/Tissue: Thyroid (timepoint 2.0 h): 35.78
Tumor/Tissue: Uterus (timepoint 2.0 h): 15.37
Uterus (% Dosis/g) (timepoint 2.0 h): 0.50 % Dosis/g
Summary: urine (timepoint 2.0 h): 83.35
Summary: Recovery (timepoint 2.0 h): 99.00
Adrenals (% Dosis/g) (timepoint 4.0 h): 0.16 % Dosis/g
Blood (% Dosis/g) (timepoint 4.0 h): 0.04 % Dosis/g
Bone (% Dosis/g) (timepoint 4.0 h): 0.06 % Dosis/g
Brain (% Dosis/g) (timepoint 4.0 h): 0.02 % Dosis/g
Fat (% Dosis/g) (timepoint 4.0 h): 0.01 % Dosis/g
Gallbladder (% Dosis/g) (timepoint 4.0 h): 6.45 % Dosis/g
Heart (% Dosis/g) (timepoint 4.0 h): 0.04 % Dosis/g
Intestine (% Dosis/g) (timepoint 4.0 h): 0.93 % Dosis/g
Muscle (% Dosis/g) (timepoint 4.0 h): 0.03 % Dosis/g
Ovaries (% Dosis/g) (timepoint 4.0 h): 0.24 % Dosis/g
Pancreas (% Dosis/g) (timepoint 4.0 h): 0.27 % Dosis/g
Skin (% Dosis/g) (timepoint 4.0 h): 0.37 % Dosis/g
Spleen (% Dosis/g) (timepoint 4.0 h): 0.59 % Dosis/g
Stomach (% Dosis/g) (timepoint 4.0 h): 0.21 % Dosis/g
Summary: Carcass (timepoint 4.0 h): 1.09
Summary: faeces (timepoint 4.0 h): 0.25
Summary: organs (timepoint 4.0 h): 6.12
Tail (% Dosis/g) (timepoint 4.0 h): 0.55 % Dosis/g
Thyroid (% Dosis/g) (timepoint 4.0 h): 0.08 % Dosis/g
Tumor (% Dosis/g) (timepoint 4.0 h): 5.17 % Dosis/g
Tumor/Tissue: Adrenals (timepoint 4.0 h): 41.62
Tumor/Tissue: Blood (timepoint 4.0 h): 148.1
Tumor/Tissue: Bone (timepoint 4.0 h): 91.73
Tumor/Tissue: Brain (timepoint 4.0 h): 237.6
Tumor/Tissue: Fat (timepoint 4.0 h): 2513
Tumor/Tissue: Gallbladder (timepoint 4.0 h): 1.11
Tumor/Tissue: Heart (timepoint 4.0 h): 153.2
Tumor/Tissue: Intestine (timepoint 4.0 h): 5.57
Tumor/Tissue: Kidney (timepoint 4.0 h): 28.19
Tumor/Tissue: Liver (timepoint 4.0 h): 18.60
Tumor/Tissue: Lung (timepoint 4.0 h): 227.5
Tumor/Tissue: Muscle (timepoint 4.0 h): 185.7
Tumor/Tissue: Ovaries (timepoint 4.0 h): 21.39
Tumor/Tissue: Pancreas (timepoint 4.0 h): 19.41
Tumor/Tissue: Skin (timepoint 4.0 h): 16.05
Tumor/Tissue: Spleen (timepoint 4.0 h): 8.58
Tumor/Tissue: Stomach (timepoint 4.0 h): 24.28
Tumor/Tissue: Thyroid (timepoint 4.0 h): 64.78
Tumor/Tissue: Uterus (timepoint 4.0 h): 23.55
Uterus (% Dosis/g) (timepoint 4.0 h): 0.21 % Dosis/g
Summary: urine (timepoint 4.0 h): 92.66
Summary: Recovery (timepoint 4.0 h): 100.1
Compound: N[C@@H](CCC(Cc1ccc(OCC[18F])cc1)C(=O)O)C(=O)O (stereo partly drawn) [[^18F]-12] [(2S)-2-Amino-5-[4-(2-[^18F]fluoroethoxy)benzyl]hexanedioic acid]
